Measured values: the CombiSolv-Exp solvation set (Vermeire and Green 2021)

Test: solvent given as SMILES

c1ccc(-c2ccccc2)cc1
Conditions | solvation free energy, 298 K [kcal/mol]
in C1COCCO1 | -9.29
in CC(C)(C)O | -8.06
in CC(C)CC(C)(C)C | -8.32
in CC(C)CC(C)O | -8.13
in CC(C)CCO | -8.16
in CC(C)CO | -8.03
in CC(C)O | -8.09
in CC(C)OCCO | -8.73
in CCC(C)(C)O | -8.3
in CCC(C)O | -8.19
in CCCC(C)CO | -8.24
in CCCC(C)O | -8.25
in CCCCC(CC)CO | -8.27
in CCCCCC | -8.53
in CCCCCCC | -8.54
in CCCCCCCC | -8.53
in CCCCCCCCC=CCCCCCCCC(=O)OCC(COC(=O)CCCCCCCC=CCCCCCCCC)OC(=O)CCCCCCCC=CCCCCCCCC | -8.8
in CCCCCCCCCC | -8.49
in CCCCCCCCO | -8.39
in CCCCCCCO | -8.36
in CCCCCCO | -8.34
in CCCCCO | -8.34
in CCCCOCCCC | -8.85
in CCCCOCCO | -8.65
in CCCO | -8.25
in CCCOCCO | -8.76
in CCO | -8.23
in CCOCC | -8.59
in CCOCCO | -8.74
in CN(C)C=O | -9.33
in CO | -7.88
in COC(C)(C)C | -9.04
in COC(C)CCO | -8.68
in ClC(Cl)(Cl)Cl | -9.22
in ClCCCl | -9.34
in ClCCl | -9.4
in Clc1ccccc1 | -9.26
in O | -2.66

CC(C)CCCO
Conditions | solvation free energy, 298 K [kcal/mol]
in CCCCCCCC | -4.84
in CCCCCCCCCC | -4.78

Oc1ccc(Cl)cc1Cl
Conditions | solvation free energy, 298 K [kcal/mol]
in CCCCCC | -6.8
in CCCCCCC | -6.85
in CCCCCCCC | -6.82
in CCCCCCCCC=CCCCCCCCC(=O)OCC(COC(=O)CCCCCCCC=CCCCCCCCC)OC(=O)CCCCCCCC=CCCCCCCCC | -7.49
in CCCCCCCCCC | -6.79
in Cc1ccc(C)cc1 | -7.58
in Cc1cccc(C)c1 | -7.56
in Cc1ccccc1C | -7.64
in O | -4.98

CCCCCCl
Conditions | solvation free energy, 298 K [kcal/mol]
in C1CCOC1 | -5.67
in C1CCOCC1 | -5.23
in C1COCCO1 | -4.94
in C=CCCCCCCCCCCCCCC | -4.46
in CC(C)=O | -4.86
in CCCCCC | -4.76
in CCCCCCCCC=CCCCCCCCC(=O)OCC(COC(=O)CCCCCCCC=CCCCCCCCC)OC(=O)CCCCCCCC=CCCCCCCCC | -4.62
in CCCCCCCCCCCCCCCC | -4.39
in CCCCOCCCC | -4.79
in O | -0.06

C[N+](=O)[O-]
Conditions | solvation free energy, 298 K [kcal/mol]
in Brc1ccccc1 | -4.19
in C1CCCCC1 | -2.81
in C1CCOC1 | -5.04
in C1COCCO1 | -5.08
in CC1COC(=O)O1 | -5.38
in CC#N | -5.63
in CC(=O)N(C)C | -5.52
in CC(=O)O | -4.86
in CC(=O)c1ccccc1 | -4.89
in CC(C)(C)O | -3.79
in CC(C)=O | -5.32
in CC(C)CC(C)(C)C | -2.74
in CC(C)CCCC(C)CCCC(C)CCCCC(C)CCCC(C)CCCC(C)C | -2.56
in CC(C)CCO | -3.74
in CC(C)O | -3.92
in CC(C)OC(C)C | -3.87
in CC(Cl)Cl | -4.84
in CCBr | -4.49
in CCC(C)=O | -5.11
in CCCC#N | -5.07
in CCCCC | -2.7
in CCCCCC | -2.8
in CCCCCCC | -2.62
in CCCCCCCC | -2.62
in CCCCCCCCCC | -2.69
in CCCCCCCCCCCCCCCC | -2.52
in CCCCCCCCO | -3.49
in CCCCCl | -4.07
in CCCCO | -3.88
in CCCCOCCCC | -3.57
in CCCO | -3.94
in CCN(CC)CC | -3.55
in CCO | -4.26
in CCOC(C)=O | -4.96
in CCOCC | -4.21
in CCOCCOCCOCC | -4.91
in CCOc1ccccc1 | -4.39
in CN1CCCC1=O | -5.53
in CN(C)C=O | -5.58
in CN(C)P(=O)(N(C)C)N(C)C | -5.68
in CNC=O | -5.14
in CO | -4.66
in COC(C)=O | -5.13
in COCCO | -5
in COc1ccccc1 | -4.65
in CS(C)=O | -5.63
in Cc1ccc(C)cc1 | -4.13
in Cc1cccc(C)n1 | -4.67
in Cc1cccc(O)c1 | -4.68
in Cc1ccccc1 | -4.27
in Cc1ccccn1 | -4.88
in ClC(Cl)(Cl)Cl | -3.49
in ClC(Cl)Cl | -4.64
in ClCCCl | -4.9
in ClCCl | -4.98
in Clc1ccccc1 | -4.24
in FC(F)(F)C(F)(F)C(F)(F)C(F)(F)C(F)(F)C(F)(F)F | -2.11
in Fc1c(F)c(F)c(F)c(F)c1F | -4.22
in Fc1ccccc1 | -4.53
in ICI | -3.76
in Ic1ccccc1 | -4.04
in NC=O | -4.73
in Nc1ccccc1 | -5.08
in O | -4.03
in O=C1CCCCC1 | -5.07
in O=C1CCCO1 | -5.44
in O=CN1CCOCC1 | -5.28
in OCCO | -4.07
in OCCOCCOCCO | -4.01
in OCc1ccccc1 | -4.5
in S=C=S | -3.25
in [2H]O[2H] | -4.01
in c1ccc2ncccc2c1 | -4.72
in c1ccc(COCc2ccccc2)cc1 | -4.41
in c1ccccc1 | -4.5
in c1ccncc1 | -5.08

Cc1cc(C)c(C)cc1C
Conditions | solvation free energy, 298 K [kcal/mol]
in CC(C)(C)O | -6.62
in CC(C)CC(C)(C)C | -7.1
in CC(C)CC(C)O | -6.69
in CC(C)CCO | -6.63
in CC(C)CO | -6.52
in CC(C)O | -6.49
in CCC(C)O | -6.62
in CCCC(C)O | -6.69
in CCCCCC | -7.24
in CCCCCCC | -7.19
in CCCCCCCC | -7.14
in CCCCCCCCC=CCCCCCCCC(=O)OCC(COC(=O)CCCCCCCC=CCCCCCCCC)OC(=O)CCCCCCCC=CCCCCCCCC | -7.13
in CCCCCCCCCC | -7.08
in CCCCCCCCCCO | -6.84
in CCCCCCCCO | -6.81
in CCCCCCCO | -6.78
in CCCCCCO | -6.75
in CCCCCO | -6.71
in CCCCO | -6.71
in CCCCOCCCC | -7.19
in CCCO | -6.54
in CCO | -6.44
in CCOCC | -7.34
in CO | -6.18
in O | -0.72

CCCCCCCCCCCCCCCCCCCCCCC
Conditions | solvation free energy, 298 K [kcal/mol]
in CC(=O)N(C)C | -15.7
in CC(C)(C)O | -14.2
in CC(C)=O | -13.4
in CCC(C)=O | -14.3
in CCC(C)O | -14.1
in CCCCOC(C)=O | -14.9
in CCOC(C)=O | -14.4
in CN(C)C=O | -15.8
in COC(C)=O | -13.7
in O | 5.07

c1ccc2ccccc2c1
Conditions | solvation free energy, 298 K [kcal/mol]
in C1CCOC1 | -8.21
in C1COCCO1 | -7.98
in CC(=O)OCC(C)C | -7.7
in CC(C)(C)O | -6.85
in CC(C)=O | -7.84
in CC(C)CC(C)(C)C | -6.92
in CC(C)CO | -7.09
in CC(C)O | -6.9
in CCC(C)O | -6.88
in CCCCCC | -7.24
in CCCCCCC | -7.22
in CCCCCCCCC=CCCCCCCCC(=O)OCC(COC(=O)CCCCCCCC=CCCCCCCCC)OC(=O)CCCCCCCC=CCCCCCCCC | -7.56
in CCCCCCCCO | -7.08
in CCCCCCO | -7.12
in CCCCCO | -6.89
in CCCCO | -7.09
in CCCO | -7.08
in CCO | -7.08
in CCOC(C)=O | -7.78
in CN1CCCC1=O | -8.08
in CN(C)C=O | -7.95
in CO | -7.01
in Cc1ccc(C)cc1 | -7.88
in Cc1cccc(C)c1 | -7.86
in Cc1ccccc1C | -7.85
in ClC(Cl)(Cl)Cl | -7.63
in ClCCCl | -8.02
in ClCCl | -8.1
in Clc1ccccc1 | -7.87
in O | -2.37
in O=C1CCCCC1 | -7.72

CC1CO1 (configuration not stated)
Conditions | solvation free energy, 298 K [kcal/mol]
in CC=O | -3.7
